The target of data set [1] is T1, TC-PTP (PTPN2) (Homo sapiens, UniProt P17706).
T1 construct: purchased Bioneer, Korea
T1 sequence (P17706 1-415): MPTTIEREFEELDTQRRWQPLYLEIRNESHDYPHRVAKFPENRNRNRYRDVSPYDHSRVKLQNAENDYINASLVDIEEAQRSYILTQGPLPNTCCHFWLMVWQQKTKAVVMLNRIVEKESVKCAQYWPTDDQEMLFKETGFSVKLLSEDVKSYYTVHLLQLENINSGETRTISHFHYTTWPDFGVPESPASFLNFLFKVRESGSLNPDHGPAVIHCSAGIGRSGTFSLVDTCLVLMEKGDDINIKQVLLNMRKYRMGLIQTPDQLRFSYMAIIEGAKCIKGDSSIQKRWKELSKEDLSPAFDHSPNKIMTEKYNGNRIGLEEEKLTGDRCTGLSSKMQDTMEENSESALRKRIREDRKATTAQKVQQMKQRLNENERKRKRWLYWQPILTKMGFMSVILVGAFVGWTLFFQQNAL
Briefly: Selectivity for protein tyrosine phosphatases: TC-PTP (PTPN2). The class given is biochemical. As to conditions: 0, 50, 100 or 200 nM tested. As to the method:
In order to examine the selectivity of sodium lobarate for protein tyrosine phosphatases, the inhibitory activities of sodium lobarate against PTP-1b, PTPN2, PTPN5, PTPN6, PTPN7 and PTPN13 were examined by spectroscopically measuring the activities of the enzymes.
Specifically, to 0.5 mg/Ml of PTP-1b, PTPN2, PTPN5, PTPN6, PTPN7 or PTPN13 (Bioneer, Korea) in protein tyrosine phosphatase buffer (20 mM Tris-Hcl, pH 8.0, 0.75 mM NaCl, 0.5 mM EDTA, 5 mM β-mercaptoethanol, 50% glycerol), 0, 50, 100 or 200 nM sodium lobarate and the substrate [pTyr1146] insulin receptor (1142-1153, Sigma, USA) were added. Then, each of the mixtures was allowed to react at room temperature for 10-30 minutes, and then malachite green-molybdate dye solution (Sigma, USA) was added thereto and reacted at room temperature for 10 minutes. After completion of the reaction with the substrate, the absorbance at 620 nm was measured. […]
Specifically, to 0.5 mg/Ml of PTP-1b, PTPN2, PTPN5, PTPN6, PTPN7 or PTPN13 (Bioneer, Korea) in protein tyrosine phosphatase buffer (20 mM Tris-Hcl, pH 8.0, 0.75 mM NaCl, 0.5 mM EDTA, 5 mM β-mercaptoethanol, 50% glycerol), 0, 50, 100 or 200 nM Lobarin and the substrate [pTyr1146] insulin receptor (1142-1153, Sigma, USA) were added. […] After completion of the reaction with the substrate, the absorbance at 620 nm was measured. […]

A short description of data set [2]: Solubility in water. The class given is physicochemical. As to conditions: dissolved in water. As to the method:
10 mg (22 umol) of the lobaric acid obtained in Example 1-2 was dissolved in 3 ml of acetone, and 50 ul of 1M NaHCO3 was added thereto, followed by stirring for 1-2 minutes. The solid precipitated on adding the NaHCO3 was filtered out, immediately after which it was completely concentrated by a rotary evaporator. After completion of the concentration, sodium lobarate (<10 mg) could be obtained as a white solid. Then, in order to remove excess salt from the product to increase the purity, the product was analyzed by reverse phase HPLC using Agilent Eclipse XDB-C18 column (4.6×150 mm, USA). The solvent system used in the analysis was composed of line A and line B which supplied 0.1% formic acid-containing water and 0.1% formic acid-containing acetonitrile, respectively. The elution conditions were as follows: 40% to 50% acetonitrile for 5 min; 50% to 80% acetonitrile for 15 min; and 80% to 90% acetonitrile for 10 min. The final purity was 92.1% (see FIG. 1).

`CCC/C=C1/OC(=O)c2c(Oc3c(O)cc(O)c(C(=O)O)c3CCCCC)cc(OC)cc21` [Lobarstin]: the “inhibitory activity against TC-PTP (PTPN2)” value in data set [1] is “no inhibitory activity”. Regarding `CCCCCc1c(Oc2cc(OC)cc3c2C(=O)OC3(O)CCCC)c(O)cc(O)c1C(=O)O` (stereo not drawn) [Lobarin], the “inhibitory activity against TC-PTP (PTPN2)” value in data set [1] is recorded as “no inhibitory activity”. Consider `CCCCCc1c2c(cc(O)c1C(=O)[O-])OC(=O)c1c(cc(OC)cc1C(=O)CCCC)O2.[Na+]` [sodium lobarate], for which the water solubility result in data set [2] is “water-soluble”.

Values taken from US8846750B2, “Pharmaceutical and food compositions for preventing or treating diabetes or obesity” (Korea Ocean Research and Development Institute, priority 2010, dated 2014).
